The text below walks through data of ChEMBL document CHEMBL2146391, “Glucose uptake stimulatory effect of 4-hydroxypipecolic acid by increased GLUT 4 translocation in skeletal muscle cells” (Bioorg Med Chem Lett, 2012).

Activity calls are given as the source filed them. The rule behind the calls is not given here.

In series [1] the test system is L6. Nature of the series: Hypoglycemic activity in rat L6-GLUT4myc myotubes assessed as increase in 2-[3H]-deoxyglucose uptake at 25 uM after 16 hrs by scintillation counter relative to control. It counts as functional.
For series [2], the system named is L6. Nature of the series: Cytotoxicity against rat L6-GLUT4myc myotubes assessed as cell viability at 25 uM after 16 hrs by MTT assay. It counts as cell-based. The settings on record: l6, 16 h.
Series [3] concerns L6. Briefly: Induction of IRS-1 mRNA expression in rat L6-GLUT4myc myotubes at 25 uM after 16 hrs by semiquantitative RT-PCR analysis. It counts as functional, cell-based.
Series [4] deals with L6. Briefly: Induction of GLUT4 translocation from intracellular compartment into plasma membrane of rat L6-GLUT4myc myotubes at 10 uM after 16 hrs by O-phenylenediamide based enzymatic assay. It counts as functional, cell-based.
For series [5], the system named is L6. Briefly: Induction of GLUT4 translocation from intracellular compartment into plasma membrane of rat L6-GLUT4myc myotubes at 25 uM by O-phenylenediamide based enzymatic assay relative to control. It counts as functional, cell-based. The settings on record: TDE = time-dependent effect.
Series [6] relates to L6. Briefly: Induction of GLUT4 mRNA expression in rat L6-GLUT4myc myotubes at 25 uM after 16 hrs by semiquantitative RT-PCR analysis. It counts as functional, cell-based.
Series [7] has as its system L6. Briefly: Hypoglycemic activity in rat L6-GLUT4myc myotubes assessed as increase in 2-[3H]-deoxyglucose uptake at 5 uM after 16 hrs by scintillation counter. It counts as functional, cell-based.
In series [8] the test system is L6. Briefly: Hypoglycemic activity in rat L6-GLUT4myc myotubes assessed as increase in 2-[3H]-deoxyglucose uptake after 16 hrs by scintillation counter. It counts as functional, cell-based.
In series [9] the test system is L6. Nature of the series: Increase of insulin-stimulated GLUT4 translocation from intracellular compartment into plasma membrane of rat L6-GLUT4myc myotubes at 25 uM after 16 hrs by O-phenylenediamide based enzymatic assay. It counts as functional, cell-based.
Series [10] concerns L6. Nature of the series: Induction of GLUT4 translocation from intracellular compartment into plasma membrane of rat L6-GLUT4myc myotubes at 25 uM after 16 hrs by O-phenylenediamide based enzymatic assay relative to control. It counts as functional.
In series [11] the test system is L6. Nature of the series: Induction of GLUT4 translocation from intracellular compartment into plasma membrane of rat L6-GLUT4myc myotubes after 16 hrs by O-phenylenediamide based enzymatic assay. It counts as functional, cell-based.
In series [12] the test system is L6. Briefly: Cytotoxicity against rat L6-GLUT4myc myotubes assessed as change in protein level at 25 uM after 16 hrs. It counts as cell-based. Conditions: l6, 16 h.
Series [13] concerns L6. Briefly: Increase of insulin-stimulated GLUT4 translocation from intracellular compartment into plasma membrane of rat L6-GLUT4myc myotubes at 25 uM after 16 hrs by O-phenylenediamide based enzymatic assay in presence of PI3K inhibitor wortmannin. It counts as functional, cell-based.
Series [14] relates to L6. Nature of the series: Induction of PKB mRNA expression in rat L6-GLUT4myc myotubes at 25 uM after 16 hrs by semiquantitative RT-PCR analysis. It counts as functional, cell-based.

Take `O=C(O)C1C[C@@H](O)CCN1` (some centres undefined): the “fold change (FC)” value in the series on L6 [1] worked out at 1.25. Besides, the Activity entry with L6 [2] is “Non-toxic”; in the series on L6 [5] it was “tde”; in the series with L6 [8] it was “Dose-dependent effect”; in the series on L6 [10], 130%; with L6 [11], “Dose-dependent effect”; with L6 [12], “Non-toxic”. Further, the outcome with L6 [3], with L6 [4], in the series with L6 [7] and in the series with L6 [9] was Active. Besides, the outcome in the series on L6 [6], with L6 [13] and with L6 [14] was inactive.
